Article PMC4929166, “Pharmacological evaluation of synthetic cannabinoids identified as constituents of spice” (Forensic Toxicology, 2016)

Experiments:
human GPR55 = molecular target: T1, human GPR55 (Homo sapiens, UniProt Q9Y2T6); test: β-Arrestin recruitment assay (PathHunter) at GPR55; assay type: cell-based; conditions: for IC50: Human GPR55 IC50, β-arrestin assay, antagonist mode; for Human GPR55 % activation / Human GPR55 % inhibition: β-arrestin assay; for Human GPR55 % activation: percent in brackets beside EC50 >10 µM; for Human GPR55 % inhibition: percent in brackets beside IC50
T1 construct: β-galactosidase enzyme fragment (PathHunter complementation tag)
T1 sequence (Q9Y2T6 whole entry, the tested form may be a part): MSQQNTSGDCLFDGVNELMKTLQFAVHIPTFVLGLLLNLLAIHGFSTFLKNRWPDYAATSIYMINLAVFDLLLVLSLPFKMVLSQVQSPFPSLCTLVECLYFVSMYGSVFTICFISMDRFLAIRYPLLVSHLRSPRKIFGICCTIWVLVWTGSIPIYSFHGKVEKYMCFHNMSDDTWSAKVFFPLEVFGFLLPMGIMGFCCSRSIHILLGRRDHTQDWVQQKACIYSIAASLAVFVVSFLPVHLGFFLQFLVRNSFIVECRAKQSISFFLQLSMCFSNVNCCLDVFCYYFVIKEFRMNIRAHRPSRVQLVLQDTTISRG
Procedure: (§1) Recruitment of β-arrestin to the respective receptor was detected by using β-galactosidase enzyme fragment complementation technology (β-arrestin PathHunter™ assay, DiscoverX, Fremont, CA, USA) as previously described. Data were obtained from three independent experiments, performed in duplicates. Data were analyzed using Graph Pad Prism Version 4.02 (San Diego, CA, USA).

human GPR18 = molecular target: T2, human GPR18 (Homo sapiens, UniProt Q14330); test: β-Arrestin recruitment assay (PathHunter) at GPR18; assay type: cell-based; conditions: for Human GPR18 % activation / Human GPR18 % inhibition: β-arrestin assay; for Human GPR18 % activation: percent in brackets beside EC50 >10 µM; for Human GPR18 % inhibition: percent in brackets beside IC50
T2 construct: β-galactosidase enzyme fragment (PathHunter complementation tag)
T2 sequence (Q14330 1-331): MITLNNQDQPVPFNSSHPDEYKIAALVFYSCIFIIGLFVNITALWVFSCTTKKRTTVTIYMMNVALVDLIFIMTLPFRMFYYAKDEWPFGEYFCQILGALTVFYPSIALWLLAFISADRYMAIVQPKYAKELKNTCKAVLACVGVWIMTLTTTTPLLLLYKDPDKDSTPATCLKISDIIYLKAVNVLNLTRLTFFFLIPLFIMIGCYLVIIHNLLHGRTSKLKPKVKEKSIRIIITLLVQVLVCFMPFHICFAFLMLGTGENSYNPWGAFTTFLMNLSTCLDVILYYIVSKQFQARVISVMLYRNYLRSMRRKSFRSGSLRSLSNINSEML
Procedure: as §1

CB1 receptor [1] = molecular target: T3, CB1 receptor (Homo sapiens, UniProt P21554); test: biochemical; assay type: binding; set-up: expressed in transfected cells; host or cells: CHO cells (membrane preparation); conditions: for CB1 selectivity Ki CB2/KiCB1: Table S1, selectivity index from Ki values; for Ki: versus 0.1 nM [3H]CP55,940, CHO cell membranes, mean ± SEM of three to five experiments, read-out: Ki ± SEM Human CB1; for fold higher Ki value at CB1 receptors after introduction of a quinoline: amide-linked group A, compared with naphthyl analogue (8 vs 10; 9 vs 11)
T3 sequence (P21554 whole entry): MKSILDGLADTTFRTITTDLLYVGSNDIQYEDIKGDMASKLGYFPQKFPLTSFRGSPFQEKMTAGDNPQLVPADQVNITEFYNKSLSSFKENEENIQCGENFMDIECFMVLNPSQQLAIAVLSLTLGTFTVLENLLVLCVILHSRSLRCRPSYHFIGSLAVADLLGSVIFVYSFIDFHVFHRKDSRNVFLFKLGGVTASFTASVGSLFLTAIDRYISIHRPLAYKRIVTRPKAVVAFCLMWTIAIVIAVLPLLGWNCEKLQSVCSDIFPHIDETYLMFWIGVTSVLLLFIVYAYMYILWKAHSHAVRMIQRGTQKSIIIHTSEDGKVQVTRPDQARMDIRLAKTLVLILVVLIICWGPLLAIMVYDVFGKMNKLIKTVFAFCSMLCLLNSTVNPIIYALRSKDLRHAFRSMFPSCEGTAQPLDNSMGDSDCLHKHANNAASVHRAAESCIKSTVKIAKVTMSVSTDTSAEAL

CB2 receptor = CB2 receptor (Homo sapiens, UniProt P34972); test: biochemical; assay type: binding; set-up: expressed in transfected cells; host or cells: CHO cells (membrane preparation); conditions: for Ki: versus 0.1 nM [3H]CP55,940, CHO cell membranes, mean ± SEM of three to five experiments, read-out: Ki ± SEM Human CB2; for CB2 selectivity Ki CB1/KiCB2: Table S1, selectivity index from Ki values
Sequence of CB2 receptor (P34972 whole entry): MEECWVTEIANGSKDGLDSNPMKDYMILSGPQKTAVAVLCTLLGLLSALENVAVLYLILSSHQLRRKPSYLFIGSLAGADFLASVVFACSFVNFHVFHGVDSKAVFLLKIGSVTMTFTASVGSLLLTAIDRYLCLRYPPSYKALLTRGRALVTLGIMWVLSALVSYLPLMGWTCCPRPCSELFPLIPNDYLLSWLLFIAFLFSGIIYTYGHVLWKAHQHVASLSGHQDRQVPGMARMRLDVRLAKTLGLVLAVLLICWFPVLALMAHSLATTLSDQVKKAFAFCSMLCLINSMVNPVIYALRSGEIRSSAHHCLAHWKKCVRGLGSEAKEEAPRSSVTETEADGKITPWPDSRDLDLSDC

CB1 receptor [2] = molecular target: T3, CB1 receptor; test: cell-based; assay type: cell-based; set-up: expressed in transfected cells; host or cells: CHO cells; conditions: cAMP accumulation, forskolin 10 µM; test concentration 1 µM or 10 µM; normalized to CP55,940

Structure (SMILES)	EC50 (human GPR55) [µM]	IC50 (human GPR55) [µM]	Human GPR55 % activation (human GPR55) [%]	Human GPR55 % inhibition (human GPR55)	EC50 (human GPR18) [µM]	IC50 (human GPR18) [µM]	Human GPR18 % activation (human GPR18) [%]	Human GPR18 % inhibition (human GPR18)	CB1 selectivity Ki CB2/KiCB1 (CB1 receptor [1])	Ki (CB1 receptor [1]) [µM]	Ki (CB2 receptor) [µM]	fold higher Ki value at CB1 receptors after introduction of a quinoline (CB1 receptor [1]) [fold]	CB2 selectivity Ki CB1/KiCB2 (CB2 receptor)	efficacy at CB1 receptor (in words) (CB1 receptor [2])
O=C(Nc1cccc2ccccc12)c1cn(CCCCCF)c2ccccc12 [Compound 5, 5F-NNEI]	> 10	> 10	25	−8%	> 10	> 10	−3	−17%	3.6	0.00369 ± 0.00197	0.0134 ± 0.0016	–	–	–
O=C(Nc1cccc2ccccc12)c1cn(CCCCCCl)c2ccccc12 [Compound 6, 5Cl-NNEI]	> 10	> 10	28	5%	> 10	> 10	1	−13%	3.2	0.0102 ± 0.0022	0.0328 ± 0.0108	–	–	–
O=C(Nc1cccc2ccccc12)c1nn(CCCCCF)c2ccccc12 [Compound 9, 5F-MN-18]	> 10	> 10	38	−5%	> 10	> 10	−26	23%	1.5	0.00165 ± 0.00026	0.0025 ± 0.00086	–	–	–
CCCCCn1nc(C(=O)Nc2cccc3cccnc23)c2ccccc21 [Compound 10, THJ]	> 10	> 10	11	50%	> 10	> 10	4	30%	–	0.103 ± 0.025	0.0127 ± 0.0041	14	8.1	–
O=C(Nc1cccc2cccnc12)c1nn(CCCCCF)c2ccccc12 [Compound 11, 5F-THJ]	> 10	> 10	28	–	> 10	> 10	−17	44%	–	0.0226 ± 0.0075	0.00275 ± 0.00099	27	8.2	–
CCCCCn1cc(C(=O)Nc2ccccc2)c2ccccc21 [Compound 14, SDB-006-N-phenyl-analog]	> 10	> 10	20	1%	> 10	> 10	9	−13%	–	0.163 ± 0.017	0.275 ± 0.025	–	–	–
O=C(NC12CC3CC(CC(C3)C1)C2)c1nn(CCCCCF)c2ccccc12 [Compound 17, 5F-APINACA (5F-AKB48)]	–	–	–	–	–	–	–	–	–	0.00194 ± 0.00055	0.000266 ± 4.1e-05	–	7.3	activated CB1 receptor more efficaciously than CB2
O=C(NC12CC3CC(CC(C3)C1)C2)c1nn(Cc2ccc(F)cc2)c2ccccc12 [Compound 18, N-((3s,5s,7s)-Adamantan-1-yl)-1-(4-fluorobenzyl)-1H-indazole-3-carboxamide]	> 10	–	−11	(83 %)	> 10	–	−27	(69 %)	–	0.00106 ± 0.00029	0.000174 ± 1.8e-05	–	6.1	–
O=C(Oc1cccc2ccccc12)c1cn(Cc2ccc(F)cc2)c2ccccc12 [Compound 20, FDU-PB-22]	> 10	> 10	11	30%	> 10	> 10	30	−4%	2.0	0.00119 ± 0.00039	0.00243 ± 0.00092	–	–	–
O=C(Oc1cccc2cccnc12)c1cn(CCCCCF)c2ccccc12 [Compound 25, 5F-PB-22]	> 10	> 10	5	-10%	> 10	> 10	−5	−5%	1.4	0.000468 ± 6.9e-05	0.000633 ± 5.8e-05	–	–	–
O=C(Oc1cccc2cccnc12)c1cn(Cc2ccc(F)cc2)c2ccccc12 [Compound 26, FUB-PB-22]	> 10	> 10	5	24%	> 10	> 10	15	8%	1.2	0.000386 ± 0.000117	0.000478 ± 0.000124	–	–	–
